In patent publication US4873331A, “Noradamantyl-carboxylic acid piperazinoalkyl esters” (American Home Products Corporation, priority 1988, dated 1989):

Legend:
[1] = molecular target: T1, limbic D2 (dopamine) receptor (Rattus norvegicus, UniProt P61169); test: Affinity for D2 receptor sites, inhibition of 3H-spiroperidol binding to limbic brain tissue; details: 1 μM test compound
T1 construct: from tissue; host or cells: limbic brain tissue

[2] = molecular target: T2, 5-HT1A serotonin receptor subtype (Rattus norvegicus, UniProt P19327); test: Affinity for 5-HT1A receptor sites, displacement of 3H-8-OH DPAT (Hall et al.); assay type: binding; details: for inhibition at 1 µM: 1 μM test compound
T2 construct: from tissue
T2 sequence (P19327 1-422): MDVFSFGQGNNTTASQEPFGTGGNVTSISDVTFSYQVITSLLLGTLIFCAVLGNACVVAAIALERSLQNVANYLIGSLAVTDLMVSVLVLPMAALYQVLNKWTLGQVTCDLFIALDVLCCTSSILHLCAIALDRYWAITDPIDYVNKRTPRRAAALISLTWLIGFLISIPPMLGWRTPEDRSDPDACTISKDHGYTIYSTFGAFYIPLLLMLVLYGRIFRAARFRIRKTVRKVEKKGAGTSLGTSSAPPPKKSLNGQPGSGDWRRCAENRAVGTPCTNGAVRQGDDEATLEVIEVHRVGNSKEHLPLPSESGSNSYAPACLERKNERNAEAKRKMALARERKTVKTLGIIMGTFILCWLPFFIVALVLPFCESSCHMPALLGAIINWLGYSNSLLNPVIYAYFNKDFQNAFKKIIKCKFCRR
Text: The serotoninergic properties of the compounds of this invention were established by the procedure of Hall et al., J. Neurochem.

[3] = molecular target: T3, M2 muscarinic receptor (Rattus norvegicus, UniProt P10980); test: M2 receptor binding, [3H] quinuclidinyl benzilate, rat cerebellum; details: [3H] quinuclidinyl benzilate 0.23 nM, 37° C., 60 minutes
T3 construct: Homogenized rat cerebellum tissue; from tissue; host or cells: rat cerebellum
T3 sequence (P10980 1-466): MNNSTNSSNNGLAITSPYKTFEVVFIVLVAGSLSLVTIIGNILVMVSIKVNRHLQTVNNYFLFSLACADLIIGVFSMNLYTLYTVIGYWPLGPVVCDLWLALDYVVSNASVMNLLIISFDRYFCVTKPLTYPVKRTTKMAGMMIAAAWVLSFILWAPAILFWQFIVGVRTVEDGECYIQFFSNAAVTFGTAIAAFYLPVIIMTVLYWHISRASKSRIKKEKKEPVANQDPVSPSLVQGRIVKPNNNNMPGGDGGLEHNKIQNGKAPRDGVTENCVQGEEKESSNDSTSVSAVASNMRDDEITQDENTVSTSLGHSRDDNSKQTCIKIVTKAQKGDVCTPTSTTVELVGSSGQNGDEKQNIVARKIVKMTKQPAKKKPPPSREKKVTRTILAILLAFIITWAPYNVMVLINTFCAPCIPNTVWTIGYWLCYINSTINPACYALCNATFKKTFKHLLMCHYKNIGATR

[4] = molecular target: T4, M1 muscarinic receptor (Rattus norvegicus, UniProt P08482); test: M1 muscarinic receptor binding, [3H] pirenzipine, rat hippocampus
T4 construct: from tissue; host or cells: rat hippocampus
T4 sequence (P08482 1-460): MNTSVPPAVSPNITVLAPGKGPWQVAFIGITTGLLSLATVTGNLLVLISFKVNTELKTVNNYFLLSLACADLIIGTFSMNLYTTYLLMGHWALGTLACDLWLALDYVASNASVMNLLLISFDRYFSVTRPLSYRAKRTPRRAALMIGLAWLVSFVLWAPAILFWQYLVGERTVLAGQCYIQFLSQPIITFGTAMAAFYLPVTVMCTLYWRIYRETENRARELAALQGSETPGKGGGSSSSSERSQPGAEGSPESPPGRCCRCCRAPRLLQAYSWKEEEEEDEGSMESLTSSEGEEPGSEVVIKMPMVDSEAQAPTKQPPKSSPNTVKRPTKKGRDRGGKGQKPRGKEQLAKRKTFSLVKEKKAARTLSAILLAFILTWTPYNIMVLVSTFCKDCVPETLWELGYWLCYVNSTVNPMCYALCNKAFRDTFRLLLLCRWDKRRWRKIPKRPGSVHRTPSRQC
Procedure: The M1 muscarinic receptor binding properties of the compounds of this invention were established as follows:
Homogenized rat hippocampus tissue is suspended in 0.32M aqueous sucrose solution and centrifuged (747×g for 10 minutes at 4° C.) and the supernatent liquid is decanted and recentrifuged (18,677×g for 20 minutes at 4° C.). The resulting pellet is resuspended in the original volume of 0.32M aqueous sucrose. The sample is then diluted 1:2 in 10 mM Na2 HPO4 /KH2 PO4 buffer (pH=7.4). A 100 μl sample of the buffered tissue suspension is incubated at 25° C. for 60 minutes in the dark with 10 μl of test compound or vehicle for control and [^3 H] pirenzipine (0.5 nM, 0.04 μCi) q.s. 1 milliliter with the buffer solution. Atropine sulfate (2 μM) is added to half the samples being processed. Binding is terminated by vacuum filtration onto Whatman GF/B filters which are washed three times with the buffer solution (3 ml/wash, 4° C.). […] Specific ]^3 H] PZ binding is defined as total binding minus binding in the presence of 2 μM atropine sulfate.

[5] = background statement, Barone et al., 1986; cited from earlier work

T1 sequence (P61169 whole entry): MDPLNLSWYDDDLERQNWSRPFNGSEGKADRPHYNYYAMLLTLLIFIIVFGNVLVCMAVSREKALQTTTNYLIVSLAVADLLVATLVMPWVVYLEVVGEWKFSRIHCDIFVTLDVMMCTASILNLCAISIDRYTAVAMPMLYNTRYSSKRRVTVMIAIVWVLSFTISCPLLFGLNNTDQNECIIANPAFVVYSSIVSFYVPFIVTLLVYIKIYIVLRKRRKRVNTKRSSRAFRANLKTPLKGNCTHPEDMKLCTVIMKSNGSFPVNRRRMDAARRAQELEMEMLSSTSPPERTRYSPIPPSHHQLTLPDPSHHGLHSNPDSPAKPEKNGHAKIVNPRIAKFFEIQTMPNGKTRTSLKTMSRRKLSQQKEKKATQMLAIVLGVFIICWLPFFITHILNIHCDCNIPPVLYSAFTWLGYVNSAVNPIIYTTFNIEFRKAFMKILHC

inhibition at 1 µM [1] [%] | inhibition at 1 µM [2] [%] | Structure (SMILES) | also measured
47 | 93 | O=C(OCCN1CCN(c2ncccn2)CC1)C12CC3CC(CC1C3)C2 [Example 1, Hexahydro-2,5-methanopentalene-3a[1H]-carboxylic acid 2-[4-(2-pyrimidyl)-1-piperazinyl]ethyl ester] | Ki ([2]; calculated from IC50 values): 23 nM
100 | 95 | COc1ccccc1N1CCN(CCOC(=O)C23CC4CC(CC2C4)C3)CC1 [Example 2, Hexahydro-2,5-methanopentalene-3a[1H]-carboxylic acid 2-[4-(2-methoxyphenyl)-1-piperazinyl]ethyl ester] | 
 |  | O=C(OCCCN1CCN(c2ncccn2)CC1)C12CC3CC(CC1C3)C2 [Example 3, Hexahydro-2,5-methanopentalene-3a[1H]-carboxylic acid 3-[4-(2-pyrimidyl)-1-piperazinyl]propyl ester] | IC50 [3]: 69000 nM; inhibition at 0.1 µM ([2]; 100 nM test compound): 12%; M2/M1 Ratio ([4]; IC50 M2 / IC50 M1): 81; IC50 ([4]; rat hippocampus, [3H] pirenzipine 0.5 nM, 25° C., 60 minutes): 850 nM
100 | 96 | COc1ccccc1N1CCN(CCCOC(=O)C23CC4CC(CC2C4)C3)CC1 [Example 4, Hexahydro-2,5-methanopentalene-3a[1H]carboxylic acid 3-[4-(2-methoxyphenyl)-1-piperazinyl]propyl ester] | 
 |  | Cc1nc2sccn2c(=O)c1CCN1CCC(=C(c2ccc(F)cc2)c2ccc(F)cc2)CC1 [Ritanserin] | clinical efficacy as anxiolytic-antidepressant agents [5]: demonstrate clinical efficacy as anxiolytic-antidepressant agents
